Columns and labels:
p-ERK = assay: Inhibition test of the phosphorylation of MAPK, western blot; assay type: cell-based, human; settings: 10 μM; UVB 40 mJ/cm^2
Method: (§1) It has been known that the skin photo-aging caused by UV rays will increase the content of MMPs in the dermis by the phosphorylation of MAPK. In this experiment, the effect of caffeamide derivative on the phosphorylation of MAPK in the cells was analyzed by western blotting.
(§2) After being treated with the compound of formula (2) prepared in Example 1, the protein expression levels of the MAPKs induced by UVB were inhibited in a concentration dependent way. Specifically, when the concentration of the compound of formula (2) was 10 μM, the expression level of P-ERK was 1.1 times as compared to that of the untreated cells. When the concentration of the compound of formula (2) was 5 μM, the expression levels of p-JNK and p-p38 were both 1.1 times as compared to that of the untreated cells.

p-JNK = assay: as above; assay type: cell-based, human; settings: 5 μM; UVB 40 mJ/cm^2
Method: as §1, §2

p-p38 = assay: as above; assay type: cell-based, human; settings: 5 μM; UVB 40 mJ/cm^2
Method: as §1, §2

c-Fos = assay: Inhibition test of AP-1 gene transcription factors, western blot; assay type: cell-based, human; settings: 10 μM; UVB 40 mJ/cm^2
Text: When cells are irradiated by UV rays, JNK, p38 and c-Jun in the cells will translocated into the nucleus, and c-For will translocate into the nucleus under the regulation of ERK and p38. The two subunits of c-Jun and c-Fos will combine to form an AP-1 gene transcription factor to participate in gene expression process and increase the mRNA transcription level of MMP-1. On the other hand, the two subunits can also reduce the gene expression level of procollagen al of Type I collagen. Therefore, in this experiment, the expression of AP-1 in the nucleus was analyzed by western blotting.
However, after the cells were treated with the compound of formula (2) prepared in Example 1, the protein expression levels of c-Fos, p-c-Jun, and c-Jun induced by UVB were inhibited in a concentration dependent way. Specifically, when the concentration of the compound of formula (2) was 10 μM, the expression level of c-Fos was 1.1 as compared to that of the untreated cells.

[1] = tested on: human fibroblast Hs68 cells; assay: Cellular toxicity evaluation, MTT assay; assay type: cell-based; settings: 24 hours
Method: MTT (3-(4,5-dimethylthiazol-2-yl)-2,5-diphenyl tetrazolium bromide) assay was used to determine the cellular toxicity of the caffeamide derivatives described herein. First, different concentrations (0 μM to 100 μM) of the compounds of formula (1) or formula (2) prepared in Example 1 of the present invention were added, respectively, into a 96-well microplate which containing human fibroblast Hs68 cells (1×10^4 cells per well). After the cells were incubated in an incubator at 37° C. and 5% CO2 for 24 hours, 15 μl of MTT solution (0.5 mg/ml; dissolved in PBS) was added into the microplate and the human fibroblast Hs68 cells were incubated for 3 hours. Next, 75 μl SDS (sodium dodecyl sulfate) solution (10% SDS was dissolved in 0.01N HCl) was added into the microplate. After the cells were maintained for 24 hours, the absorbances of each well were measured at a wavelength of 570 nm by an enzyme immunoassay analyzer. Finally, the cell survival rate was calculated by the following formula to observe the cellular toxicity of compounds. The results are shown in Table 5, FIG. 10a and FIG. 10b. Cell survival rate(%)=absorbance of the experimental group/absorbance of the control group.

Smad3 = assay: Promotion test of the expression of collagen, western blot; assay type: cell-based, human; settings: 25 μM; UVB 40 mJ/cm^2
Method: (§3) It has been known that Smad3 protein can promote the expression level of procollagen-1, and Smad7 protein can inhibit the expression level of Smad3 protein. After cells were irradiated with UV rays, the expression levels of procollagen-1 and Smad3 protein will reduce and the expression level of Smad7 protein will increase. Therefore, in this experiment, the expression levels of intracellular procollagen-1 protein, Smad3 protein and Smad7 protein were analyzed by western blotting.
(§4) Specifically, when the concentration of the compound of formula (2) was 25 μM, the protein expression level of Smad7 was 1.1 times as compared to that of the untreated cells.

Smad7 = assay: as above; assay type: cell-based, human; settings: 25 μM; UVB 40 mJ/cm^2
Method: as §3, §4

procollagen-1 = assay: as above; assay type: cell-based, human; settings: 25 μM; UVB 40 mJ/cm^2
Method: as §3, §4

[2] = Scavenging test of DPPH free radical; assay type: biochemical; settings: for Scavenging efficiency (%): 200 μM DPPH, 30 minutes
Method: DPPH (1,1-diphenyl-2-picrylhydrazyl) was used as a source of free radicals to examine the scavenging efficiency of the caffeamide derivatives prepared in Example 1 on free radicals. […] The mixtures were placed in the dark at room temperature for 30 minutes and its absorbance at 517 nm was measured by an enzyme immunoassay analyzer. In this experiment, 50 volume % propanediol was used to replace extracts and to be a control group, ascorbic acid (vitamin C) was used as a positive control group, and methanol was used to replace DPPH as the background value. The scavenging efficiency of caffeamide derivatives on free radicals was examined by the formula blow, and the results are shown in Table 2, FIG. 1a, and FIG. 1b. Scavenging efficiency(%)=[the absorbance of the control group−the absorbance of the experimental group/the absorbance of the control group]×100%.

In the case of O=C(C=Cc1ccc(O)c(O)c1)NCCc1ccc(Br)cc1 [Compound of formula (2)], the “expression level of p-ERK as compared to that of the untreated cells” value (p-ERK) is reported as 1.1 times, the “expression level of p-JNK as compared to that of the untreated cells” value (p-JNK) is reported as 1.1 times and the “expression level of p-p38 as compared to that of the untreated cells” value (p-p38) is reported as 1.1 times. The “expression level of c-Fos as compared to that of the untreated cells” value (c-Fos) was 1.1, the “Cell survival rate (%)” value ([1]; 5 μM) was 92.0 ± 1.0% and the “Cell survival rate (%)” value ([1]; 10 μM) was 90.4 ± 2.3%. The “Cell survival rate (%)” value ([1]; 25 μM) was 89.7 ± 2.8%, the “Cell survival rate (%)” value ([1]; 50 μM) was 86.1 ± 1.4% and the “protein expression level of Smad3 inhibited by UVB, reversed to” value (Smad3) was 0.5 times. The “protein expression level of Smad7 as compared to that of the untreated cells” value (Smad7) was 1.1 times, the “protein expression level of procollagen-1 decreased by UVB, reversed to” value (procollagen-1) was 0.4 times and the “Scavenging efficiency (%)” value ([2]; 1 μM) was 6.4 ± 4.9%. For the same compound, the “Scavenging efficiency (%)” value ([2]; 5 μM) was 12.9 ± 3.5%, the “Scavenging efficiency (%)” value ([2]; 10 μM) was 26.5 ± 0.9% and the “Scavenging efficiency (%)” value ([2]; 25 μM) was 62.1 ± 2.9%. The “Scavenging efficiency (%)” value ([2]; 50 μM) was 96.6 ± 0.4% and the EC50 ([2]; DPPH free radical scavenging, read-out: SC50 (the source's name)) was 20 ± 1 µM.
